Data reported in ChEMBL document CHEMBL1201862, “PubChem BioAssay data set” (2004).
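Tested at 5 concentrations; 48 h exposure; 96-well plates; endpoints linearly interpolated, else capped at highest concentration. Here, GI50 denotes the concentration required for 50% inhibition of growth.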 Calls of active or inactive are those of the source. Rule as the data show it: active = GI50 up to about 1.1 µM and inactive = higher.

Experiments:
Assay in all cases: inhibition of tumour cell growth, NCI panel, 48 h
[1] = test system: ACHN
[2] = test system: Hs-578T
[3] = test system: OVCAR-4
[4] = test system: UACC-257
[5] = test system: SNB-19
[6] = test system: UACC-62
[7] = test system: HCT-116
[8] = test system: NCI/ADR-RES
[9] = test system: SK-MEL-5
[10] = test system: LOX IMVI
[11] = test system: M14
[12] = test system: U-251
[13] = test system: HL-60
[14] = test system: SK-MEL-2
[15] = test system: SNB-75
[16] = test system: A549
[17] = test system: SF-539
[18] = test system: K562
[19] = test system: NCI-H23
[20] = test system: SN12C
[21] = test system: HCC 2998
[22] = test system: SF-268
[23] = test system: MDA-N
[24] = test system: NCI-H460
[25] = test system: TK-10
[26] = test system: UO-31
[27] = test system: HCT-15
[28] = test system: OVCAR-5
[29] = test system: NCI-H226
[30] = test system: IGROV-1
[31] = test system: Malme-3M
[32] = test system: SR
[33] = test system: PC-3
[34] = test system: NCI-H522
[35] = test system: EKVX
[36] = test system: SK-MEL-28
[37] = test system: SF-295
[38] = test system: KM12
[39] = test system: HOP-62
[40] = test system: COLO 205
[41] = test system: BT-549
[42] = test system: CAKI-1
[43] = test system: MCF7
[44] = test system: SK-OV-3
[45] = test system: A498
[46] = test system: MDA-MB-435
[47] = test system: 786-0
[48] = test system: SW-620
[49] = test system: RXF 393
[50] = test system: DU-145
[51] = test system: HOP-92
[52] = test system: OVCAR-8
[53] = test system: OVCAR-3
[54] = test system: HT-29
[55] = test system: MDA-MB-231
[56] = test system: MOLT-4
[57] = test system: CCRF-CEM
[58] = test system: RPMI-8226
[59] = test system: T47D

COC(=O)C1(Cc2ccc(C)cc2)Cc2c(C)cccc2C1=O (configuration not stated)
GI50 [1]: 26.5 µM (inactive)
GI50 [2]: 15.9 µM (inactive)
GI50 [3]: 20.3 µM (inactive)
GI50 [4]: 22.1 µM (inactive)
GI50 [5]: 17.7 µM (inactive)
GI50 [6]: 20.8 µM (inactive)
GI50 [7]: 13.3 µM (inactive)
GI50 [8]: 14.9 µM (inactive)
GI50 [9]: 12.9 µM (inactive)
GI50 [10]: 18.9 µM (inactive)
GI50 [11]: 16.6 µM (inactive)
GI50 [12]: 17.1 µM (inactive)
GI50 [13]: 5.6 µM (inactive)
GI50 [14]: 12.9 µM (inactive)
GI50 [15]: 26.4 µM (inactive)
GI50 [16]: 18.2 µM (inactive)
GI50 [17]: 16.4 µM (inactive)
GI50 [18]: 8.04 µM (inactive)
GI50 [19]: 35.3 µM (inactive)
GI50 [20]: 18.3 µM (inactive)
GI50 [21]: 16.8 µM (inactive)
GI50 [22]: 21.8 µM (inactive)
GI50 [23]: 3.27 µM (inactive)
GI50 [24]: 17.6 µM (inactive)
GI50 [25]: 26.2 µM (inactive)
GI50 [26]: 24.7 µM (inactive)
GI50 [27]: 14.2 µM
GI50 [28]: 24.6 µM (inactive)
GI50 [29]: 15.3 µM (inactive)
GI50 [30]: 16.4 µM (inactive)
GI50 [31]: 13 µM (inactive)
GI50 [32]: 7.24 µM (inactive)
GI50 [33]: 12.4 µM (inactive)
GI50 [34]: 11.2 µM (inactive)
GI50 [35]: 18.2 µM (inactive)
GI50 [36]: 26 µM (inactive)
GI50 [37]: 15.4 µM (inactive)
GI50 [38]: 6.75 µM (inactive)
GI50 [39]: 19.3 µM (inactive)
GI50 [40]: 12.1 µM (inactive)
GI50 [41]: 16.3 µM (inactive)
GI50 [42]: 25.7 µM (inactive)
GI50 [43]: 11.2 µM (inactive)
GI50 [44]: 14.5 µM (inactive)
GI50 [45]: 13.7 µM (inactive)
GI50 [46]: 3.08 µM (inactive)
GI50 [47]: 20.5 µM (inactive)
GI50 [48]: 10.9 µM (inactive)
GI50 [49]: 9.71 µM (inactive)
GI50 [50]: 15.3 µM (inactive)
GI50 [51]: 16.6 µM (inactive)
GI50 [52]: 27.7 µM (inactive)
GI50 [53]: 11.7 µM (inactive)
GI50 [54]: 8.83 µM (inactive)
GI50 [55]: 31.1 µM (inactive)
GI50 [56]: 20 µM (inactive)
GI50 [57]: 82 µM (inactive)
GI50 [58]: 15.1 µM (inactive)
GI50 [59]: 18.5 µM (inactive)

CC(C)(C)OC(=O)[C@@H]1CCC(=O)N1C1(c2ccccc2)c2ccccc2-c2ccccc21
GI50 [1]: 26.9 µM (inactive)
GI50 [2]: 33.5 µM (inactive)
GI50 [3]: 28.6 µM (inactive)
GI50 [4]: 77.1 µM (inactive)
GI50 [5]: > 100 µM (inactive)
GI50 [6]: 33.6 µM (inactive)
GI50 [7]: 37.8 µM (inactive)
GI50 [8]: > 100 µM (inactive)
GI50 [9]: 23.9 µM (inactive)
GI50 [10]: 17.9 µM (inactive)
GI50 [11]: 50.4 µM (inactive)
GI50 [12]: 25.7 µM (inactive)
GI50 [13]: 37.2 µM (inactive)
GI50 [14]: 26.2 µM (inactive)
GI50 [15]: 25.9 µM (inactive)
GI50 [16]: 35.2 µM (inactive)
GI50 [17]: 17.1 µM (inactive)
GI50 [18]: 41 µM (inactive)
GI50 [19]: 62.4 µM (inactive)
GI50 [20]: 39.3 µM (inactive)
GI50 [21]: 52.8 µM (inactive)
GI50 [22]: > 100 µM (inactive)
GI50 [23]: 29.4 µM (inactive)
GI50 [24]: 30.5 µM (inactive)
GI50 [25]: > 100 µM (inactive)
GI50 [26]: 67.3 µM (inactive)
GI50 [27]: 55.5 µM
GI50 [28]: 93.1 µM (inactive)
GI50 [29]: > 100 µM (inactive)
GI50 [30]: 56.4 µM (inactive)
GI50 [31]: 33.3 µM (inactive)
GI50 [32]: 38.5 µM (inactive)
GI50 [33]: 29.4 µM (inactive)
GI50 [34]: 26.9 µM (inactive)
GI50 [35]: 82.8 µM (inactive)
GI50 [36]: 28.6 µM (inactive)
GI50 [37]: 19.1 µM (inactive)
GI50 [38]: 43.3 µM (inactive)
GI50 [39]: 58.5 µM (inactive)
GI50 [40]: 21.4 µM (inactive)
GI50 [41]: > 100 µM (inactive)
GI50 [42]: 88.5 µM (inactive)
GI50 [43]: 67.6 µM (inactive)
GI50 [44]: > 100 µM (inactive)
GI50 [45]: 64.7 µM (inactive)
GI50 [46]: 30.1 µM (inactive)
GI50 [47]: 38.8 µM (inactive)
GI50 [48]: 30.5 µM (inactive)
GI50 [49]: 9.77 µM (inactive)
GI50 [50]: 97.1 µM (inactive)
GI50 [51]: 26.3 µM (inactive)
GI50 [52]: 88.1 µM (inactive)
GI50 [53]: 27.4 µM (inactive)
GI50 [54]: 23.7 µM (inactive)
GI50 [55]: 16.4 µM (inactive)
GI50 [56]: 25.9 µM (inactive)
GI50 [57]: 23.8 µM (inactive)
GI50 [59]: 44.9 µM (inactive)
